Like-named read-outs stand apart in the source and are kept apart here. Each block holds one compound with its values, some of them ahead of it.
Assays:
[1] = biological target: T1, human cannabis CB1 receptor (Homo sapiens, UniProt P21554); assay: CB1 receptor affinity, [3H]-CP-55,940 radioligand binding on HEK cell membranes
T1 construct: expressed in transfected cells; host or cells: human embryonic kidney (HEK) cells, Semliki Forest Virus system, membrane preparation
Method: The affinity of the compounds of the invention for cannabinoid CB1 receptors was determined using membrane preparations of human embryonic kidney (HEK) cells in which the human cannabis CB1 receptor is transiently transfected using the Semliki Forest Virus system in conjunction with [3H]-CP-55,940 as radioligand. After incubation of a freshly prepared cell membrane preparation with the [3H]-ligand, with or without addition of compounds of the invention, separation of bound and free ligand was performed by filtration over glassfiber filters. Radioactivity on the filter was measured by liquid scintillation counting.
The data is determined with the experimental conditions described in Devane et. al. Mol. Pharmacol. 34 (1988) 605-613.

NMRI mice = assay: CP 55,940-induced hypothermia in NMRI mice; assay type: in vivo; settings: po, CP 55,940 0.3 mg/kg i.v.; for Hypothermia in NMRI mice ID50 or minimum effective dose (MED), result in words: highest dose 30 mg/kg
Method: Effect of CB1 Receptor Antagonist/Inverse Agonist on CP 55,940-Induced Hypothermia in NMRI Mice
Male NMRI mice were used in this study and were obtained from Research Consulting Company Ltd (RCC) of Füllinsdorf (Switzerland). Mice, weighing 30-31 g were used in this study. Ambient temperature is approximately 20-21° C. and relative humidity 55-65%. A 12 hours light-dark cycle is maintained in the rooms with all tests being performed during the light phase. Access to tap water and food are ad libitum.
All measurements were made between 12:00 am and 5:00 pm. Mice were brought in this environment and habituated for at least two hours before the start of the experiment. They had always free access to food and water. For each dose, 8 mice were used. Rectal body temperature measurements were recorded by mean of a rectal probe (RET2 of Physitemp) and digital thermometer (Digi-sense n°8528-20 of Cole Parmer, Chicago USA). The probe was inserted about 3.5 cm in each mouse.
The body temperature was taken 15 min before administration of either Vehicle or CB1 receptor antagonist/inverse agonist. 30 or 90 min after i.p. or p.o. administration of this compound, respectively, rectal body temperature was recorded in order to evaluate any influence of the compound itself. The CB receptor agonist CP 55,940 (0.3 mg/kg) was immediately administered intravenously, then 20 min after i.v. administration of CP 55940, body temperature was again measured.

[2] = tested on: obese Spague-Dawley rats fed a high fat diet; assay: Body weight reduction in obese rats fed a high fat diet; assay type: in vivo; settings: over 17 days
Source text: In vivo efficacy in the hypothermia model translated into efficacy in a disease related model, namely body weight reduction in obese Spague-Dawley rats fed a high fat diet (in analogy to Vickers et al. Psychopharmacology 2003, 167, 103-11 for obese fa/fa rats).

[3] = doses of 10 and 20 mg daily; cited from earlier work
[4] = Table 1, read-out: IC50 (affinity for the CB1 receptor)
[5] = Table 2, read-out: CB1 receptor affinity IC50

T1 sequence (P21554 whole entry): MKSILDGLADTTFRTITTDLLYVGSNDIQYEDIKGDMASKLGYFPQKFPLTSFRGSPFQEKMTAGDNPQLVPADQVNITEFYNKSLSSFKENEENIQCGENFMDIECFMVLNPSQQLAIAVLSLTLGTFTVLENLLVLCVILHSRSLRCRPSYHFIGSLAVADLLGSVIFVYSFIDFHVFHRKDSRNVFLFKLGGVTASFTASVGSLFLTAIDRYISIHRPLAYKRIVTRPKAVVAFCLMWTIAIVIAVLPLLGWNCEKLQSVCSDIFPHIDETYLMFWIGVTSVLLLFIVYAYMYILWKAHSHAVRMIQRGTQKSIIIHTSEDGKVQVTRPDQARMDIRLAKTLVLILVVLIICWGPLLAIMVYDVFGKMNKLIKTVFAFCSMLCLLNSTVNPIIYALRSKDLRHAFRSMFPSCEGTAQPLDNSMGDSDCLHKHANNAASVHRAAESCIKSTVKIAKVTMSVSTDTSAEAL

Structure (SMILES): O=C(c1cc2c(cc1F)O[C@](c1ccc(Cl)cc1)(c1ccc(Cl)cc1Cl)O2)N1CCOCC1 [R-(−)-[2-(4-Chloro-phenyl)-2-(2,4-dichloro-phenyl)-6-fluoro-benzo[1,3]dioxol-5-yl]-morpholin-4-yl-methanone]
IC50 [1, 4]: 2.5 nM | Hypothermia in NMRI mice ID50 (NMRI mice): ID50: 1.6 mg/kg po | BW reduction ([2]; once daily 3 mg/kg po): 9.7%

Structure (SMILES): Cc1c(C(=O)NN2CCCCC2)nn(-c2ccc(Cl)cc2Cl)c1-c1ccc(Cl)cc1 [rimonabant, reference compound]
BW reduction ([2]; once daily 10 mg/kg po): 6.6% | body weight compared to placebo [3]: significantly reduced body weight

Structure (SMILES): O=C(c1cc2c(cc1F)O[C@@](c1ccc(F)cc1)(c1ccc(Cl)cc1Cl)O2)N1CCOCC1 [S-(−)[2-(2,4-Dichloro-phenyl)-2-(4-fluoro-phenyl)-6-fluoro-benzo[1,3]dioxol-5-yl]-morpholin-4-yl-methanone]
IC50 [1, 4]: 75 nM

Structure (SMILES): O=C(c1cc2c(cc1F)OC(c1ccc(Cl)cc1)(c1ccc(Cl)cc1)O2)N1CCOCC1 [Meso-[2,2-Bis-(4-chloro-phenyl)-6-fluoro-benzo[1,3]dioxol-5-yl]-morpholin-4-yl-methanone, reference compound]
IC50 [1, 5]: 26 nM | Hypothermia in NMRI mice ID50 or minimum effective dose (MED), result in words (NMRI mice): inactive at 30

Structure (SMILES): O=C(c1cc2c(cc1F)O[C@@](c1ccc(Cl)cc1)(c1ccc(Cl)cc1Cl)O2)N1CCOCC1 [S-(+)[2-(4-Chloro-phenyl)-2-(2,4-dichloro-phenyl)-6-fluoro-benzo[1,3]dioxol-5-yl]-morpholin-4-yl-methanone]
IC50 [1, 4]: 17 nM | IC50 [1, 5]: 17 nM | Hypothermia in NMRI mice minimum effective dose (MED) (NMRI mice): MED: 10 mg/kg po

Further lines, with some results ahead:

IC50 [1, 4]: 33 nM
Structure (SMILES): O=C(c1cc2c(cc1F)O[C@@](c1ccccc1F)(c1ccc(Cl)cc1Cl)O2)N1CCOCC1 [S-(−)-[2-(2,4-dichloro-phenyl)-6-fluoro-2-(2-fluoro-phenyl)-benzo[1,3]dioxol-5-yl]-morpholin-4-yl-methanone]
Hypothermia in NMRI mice ID50 or minimum effective dose (MED), result in words (NMRI mice): inactive at 30

IC50 [1, 4]: 7 nM
Structure (SMILES): O=C(c1cc2c(cc1F)O[C@](c1ccc(F)cc1)(c1ccc(Cl)cc1Cl)O2)N1CCOCC1 [R-(+)-[2-(2,4-Dichloro-phenyl)-2-(4-fluoro-phenyl)-6-fluoro-benzo[1,3]dioxol-5-yl]-morpholin-4-yl-methanone]

IC50 [1, 4]: 5 nM
Structure (SMILES): O=C(c1cc2c(cc1F)O[C@](c1ccccc1F)(c1ccc(Cl)cc1Cl)O2)N1CCOCC1 [R-(+)[2-(2,4-Dichloro-phenyl)-6-fluoro-2-(2-fluoro-phenyl)-benzo[1,3]dioxol-5-yl]-morpholin-4-yl-methanone]
Hypothermia in NMRI mice ID50 (NMRI mice): ID50: 4.0 mg/kg po
